# Measurements reported in patent US5486597A, “Tetrapeptide derivatives and analogues” (James Black Foundation Limited, priority 1990, dated 1996).
# Non-standard residues stand in square brackets, D forms with d. Residues, ends and D or L forms follow the SMILES beside them. *: point of attachment. 2Nal = N[C@@H](Cc1ccc2ccccc2c1)C(=O)O; Boc = CC(C)(C)OC(=O)*
# Legend:
# Type in all cases: cell-based
# [1] = target: T1, gastrin receptor (Cavia porcellus, UniProt H0VZC5); test: guinea-pig fundus assay for gastrin activity (stomach muscle strips); settings: 10^-8 M devazepide present, 60 minute equilibration, agonist e.g. pentagastrin, standard errors less than 5%
# T1 construct: Strips of muscle (approximately 2.5 cm by 1 cm) are removed from the proximal area of the stomach; from tissue; host or cells: guinea-pig proximal stomach (fundus) muscle strips
# T1 sequence (H0VZC5 1-426): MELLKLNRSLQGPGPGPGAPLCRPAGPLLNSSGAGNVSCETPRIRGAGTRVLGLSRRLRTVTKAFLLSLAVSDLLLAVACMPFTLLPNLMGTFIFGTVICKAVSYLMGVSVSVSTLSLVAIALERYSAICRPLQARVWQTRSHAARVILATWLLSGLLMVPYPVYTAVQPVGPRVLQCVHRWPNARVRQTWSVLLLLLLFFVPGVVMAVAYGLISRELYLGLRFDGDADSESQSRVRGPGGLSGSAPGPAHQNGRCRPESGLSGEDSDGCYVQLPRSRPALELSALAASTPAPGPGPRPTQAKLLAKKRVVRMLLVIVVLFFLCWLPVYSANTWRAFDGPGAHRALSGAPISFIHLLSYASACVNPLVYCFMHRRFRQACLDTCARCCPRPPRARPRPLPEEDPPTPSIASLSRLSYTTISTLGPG
# Method: The compounds were assayed for gastrin activity using the mouse stomach assay as described by Black, J. W. and Shankley, N. P., Br. J. Pharmacol., 86, 571-579, (1985), and also in the guinea-pig fundus assay, as follows:
# The stomach is removed from a male Dunkin-Hartley guinea-pig (250-500 g), and Krebs solution is injected through a hypodermic needle under the top stomach muscle layer. The composition (mM) of the Krebs solution is as follows: Na^+ 143, K^+ 5.9, Ca^2+ 2.5, Mg^2+ 1.2, Cl^- 128, H2 PO4^- 2.2, HCO3^- 24.9, SO4^2- 1.2, dextrose 10. Strips of muscle (approximately 2.5 cm by 1 cm) are removed from the proximal area of the stomach (one from each side) and tied with cotton thread to isotonic transducers under an initial loading tension of 0.35 g.
# The preparation is immersed in 20 mls of Krebs solution containing 10^-8 M devazepide (25 μl 2×10^-3 M devazepide/100% DMF solution in 5 dm^3 Krebs) and gassed with 95% O2 /5% CO2. The function of the devazepide is to block possible effects at CCK receptors present in the tissue.
# The preparation is washed twice over a 60 minute period then 10 mM KCl is added. At 90 minutes, test compounds (ie. potential antagonists) are added and a further 60 minute equilibration period allowed. After this time, cumulative agonist (e.g. pentagastrin) dose-response curves are constructed.
# [2] = target: T2, gastrin receptor (Mus musculus, UniProt P56481); test: mouse stomach assay for gastrin activity (isolated stomach, acid secretion); settings: for Acid seretion at 10^-5 M test compound, relative to pentagastrin (%): mouse stomach, NS = not significant
# T2 construct: assayed for gastrin activity using the mouse stomach assay; from tissue; host or cells: isolated mouse stomach
# T2 sequence (P56481 1-453): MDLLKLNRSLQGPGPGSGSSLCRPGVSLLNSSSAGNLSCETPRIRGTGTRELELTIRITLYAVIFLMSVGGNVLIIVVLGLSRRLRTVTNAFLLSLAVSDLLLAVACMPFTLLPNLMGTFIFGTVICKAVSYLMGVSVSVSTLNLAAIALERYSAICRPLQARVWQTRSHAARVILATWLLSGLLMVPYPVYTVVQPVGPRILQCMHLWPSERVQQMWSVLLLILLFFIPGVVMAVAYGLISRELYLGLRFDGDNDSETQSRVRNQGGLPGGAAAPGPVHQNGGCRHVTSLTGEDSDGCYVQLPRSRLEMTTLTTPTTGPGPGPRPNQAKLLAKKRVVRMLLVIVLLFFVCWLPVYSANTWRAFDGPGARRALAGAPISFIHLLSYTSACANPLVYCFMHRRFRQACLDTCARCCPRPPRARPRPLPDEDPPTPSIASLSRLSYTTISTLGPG
# Method: The compounds were assayed for gastrin activity using the mouse stomach assay as described by Black, J. W. and Shankley, N. P., Br. J. Pharmacol., 86, 571-579, (1985), and also in the guinea-pig fundus assay, as follows: […]
# [3] = target: T3, cholecystokinin receptors (Cavia porcellus, UniProt Q63931); test: CCK-antagonist activity in isolated guinea-pig gall-bladder strip preparations; settings: guinea-pig gall-bladder strips; CCK-8 as agonist; test compound incubated for 60 minutes; standard errors less than 5%
# T3 construct: Isolated, strip preparations were prepared from gall-bladders removed from male Dunkin-Hartley guinea-pigs; from tissue; host or cells: guinea-pig gall-bladder strips
# T3 sequence (Q63931 1-430): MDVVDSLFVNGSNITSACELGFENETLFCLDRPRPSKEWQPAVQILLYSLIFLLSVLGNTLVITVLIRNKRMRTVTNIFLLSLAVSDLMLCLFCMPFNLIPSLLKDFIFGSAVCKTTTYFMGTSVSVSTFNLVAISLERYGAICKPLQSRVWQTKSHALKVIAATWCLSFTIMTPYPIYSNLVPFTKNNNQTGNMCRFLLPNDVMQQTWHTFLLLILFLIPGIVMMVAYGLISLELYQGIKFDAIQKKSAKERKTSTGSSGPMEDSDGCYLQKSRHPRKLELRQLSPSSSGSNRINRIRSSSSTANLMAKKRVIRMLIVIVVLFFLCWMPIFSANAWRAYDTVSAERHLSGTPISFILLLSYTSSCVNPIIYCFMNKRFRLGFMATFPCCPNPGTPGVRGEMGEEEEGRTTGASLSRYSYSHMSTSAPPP
# Method: The compounds of the invention were also assayed for CCK-antagonist activity as follows:
# Isolated, strip preparations were prepared from gall-bladders removed from male Dunkin-Hartley guinea-pigs (250-500 g body weight) according to the method of La Morte, W. W., et al., J.P.E.T., 217, (3), 638-644 (1981).
# The complete gall-bladder is removed and opened along the longitudinal axis. Strips measuring 3 mm in the longitudinal axis and 1 mm in the transverse axis are cut and then tied with cotton to stainless steel wires. The preparation is connected to a GRASS FTO3 isometric transducer under an initial loading tension of 1 g and is immersed in 20 mls of Krebs solution maintained at 37° C. and gassed with 95% O2 /5% CO2. The Krebs solution is as detailed above in connection with the fundus assay, except that the Ca^2+ concentration is decreased to 0.5 mM. After 30 mins the preparation is washed. Drug addition begins after an initial 90 min stabilisation period. Responses are measured as changes in tension from that immediately prior to any drug addition. Single cumulative agonist concentration-effect curves, using CCK-8 as agonist, are obtained on each preparation in the absence and presence of test compound which has been incubated for 60 minutes. The antagonist activity of the test compound is estimated and expressed as the negative logarithm (base 10) of the equilibrium dissociation constants (pK8) using the modifications of standard competitive analysis described by Black et al., Br. J. Pharmacol.,86,571-579, (1985) and Shankley et al., Br. J. Pharmacol.,94,264-274 (1988).
# [4] = isolated mouse stomach assay, gastrin antagonism, standard errors less than 5%
Molecule,pKB [1],pKB [3],further results
"COc1ccc2[nH]cc(CC(NC(=O)OC(C)(C)C)C(=O)N[C@@H](Cc3ccc4ccccc4c3)C(=O)N[C@@H](CC(=O)O)C(=O)N[C@@H](Cc3ccccc3)C(N)=O)c2c1 (mixture of isomers) [Example 19, N-t-Butyloxycarbonyl-5-methoxy-D,L-tryptophyl-L-3-(2-naphthyl)alanyl-L-aspartyl-L-phenylalaninamide]",,,"Kb [1]: 1580 nM; Kb ([2]; isolated mouse stomach assay, gastrin antagonism, standard errors less than 5%, read-out: pKB mouse stomach (converted)): 5010 nM; Acid seretion at 10^-5 M test compound, relative to pentagastrin (%) [2]: 80%; Kb [3]: 501 nM"
"CN(C)C(=O)[C@H](Cc1ccccc1)NC(=O)[C@H](CC(=O)O)NC(=O)[C@H](Cc1ccc2ccccc2c1)NC(=O)[C@H](Cc1c[nH]c2ccccc12)NC(=O)OC(C)(C)C [Example 6, N-t-Butyloxycarbonyl-L-tryptophyl-L-3-(2-naphthyl)alanyl-L-aspartyl-L-phenylalanyl-(N,Ndimethyl)amide] (Boc-W[2Nal]DF-NMe2)",5.6,,"pKB mouse stomach [2, 4]: 5.6; Acid seretion at 10^-5 M test compound, relative to pentagastrin (%) [2]: 22%"
"CC(C)(C)OC(=O)N[C@@H](Cc1c[nH]c2ccccc12)C(=O)N[C@@H](Cc1ccc2ccccc2c1)C(=O)N[C@@H](CC(=O)O)C(=O)NCCc1ccc(Cl)cc1 [Example 8, N-t-Butyloxycarbonyl-L-tryptophyl-L-3-(2-naphthyl)alanyl-L-aspartyl-(4-chlorophenethyl)amide]",5.0,,"pKB mouse stomach [2, 4]: 5.9; Acid seretion at 10^-5 M test compound, relative to pentagastrin (%) [2]: 28%"
"CC(C)(C)OC(=O)N[C@@H](Cc1c[nH]c2ccccc12)C(=O)N[C@@H](Cc1ccc2ccccc2c1)C(=O)N[C@@H](CC(=O)O)C(=O)NCCc1ccncc1 [Example 44, N-t-Butyloxycarbonyl-L-tryptophyl-L-3-(2-naphthyl)alanyl-L-aspartyl-2-(4-pyridyl)ethylamide]",6.0,6.2,
"COc1cc2c(cc1OC)CN(C(=O)C(CC(=O)O)NC(=O)C(Cc1ccc3ccccc3c1)NC(=O)C(Cc1c[nH]c3ccccc13)NC(=O)OC(C)(C)C)CC2 [Example 48, N-t-Butyloxycarbonyl-L-tryptophyl-L-3-(2-naphthyl)alanyl-L-aspartyl-2-N-(6,7-dimethoxy-1,2,3,4-tetrahydro)isoquinolinamide]",5.7,6.6,
"CC(C)(C)OC(=O)N[C@@H](Cc1c[nH]c2ccccc12)C(=O)N[C@@H](Cc1ccc2ccccc2c1)C(=O)N[C@@H](CC(=O)O)C(=O)NCCc1ccc(S(N)(=O)=O)cc1 [Example 49, N-t-Butyloxycarbonyl-L-tryptophyl-L-3-(2-naphthyl)alanyl-L-aspartyl-4-sulphonamidophenethylamide]",6.2,6.8,
COc1ccc(CNC(=O)[C@H](CC(=O)O)NC(=O)[C@H](Cc2ccc3ccccc3c2)NC(=O)[C@H](Cc2c[nH]c3ccccc23)NC(=O)OC(C)(C)C)cc1 [Example 51],5.7,7.0,
"CC(C)(C)OC(=O)N[C@@H](Cc1c[nH]c2ccccc12)C(=O)N[C@@](C)(Cc1ccc2ccccc2c1)C(=O)N[C@@H](CC(=O)O)C(=O)N[C@@H](Cc1ccccc1)C(N)=O [Example 57, N-t-Butyloxycarbonyl-L-tryptophyl-L-2-methyl-3-(2-naphthyl)alanyl-L-aspartyl-L-phenylalaninamide]",5.6,6.0,
"COc1ccc(CCNC(=O)[C@H](CCC(=O)O)NC(=O)[C@H](Cc2ccc3ccccc3c2)NC(=O)[C@H](Cc2c[nH]c3ccccc23)NC(=O)OC(C)(C)C)cc1 [Example 61, N-t-Butyloxycarbonyl-L-tryptophyl-L-3-(2-naphthyl)alanyl-L-glutamyl-4-methoxyphenethylamide]",5.7,6.5,
"CC(C)(C)CCNC(=O)[C@H](CC(=O)O)NC(=O)[C@H](Cc1ccc2ccccc2c1)NC(=O)[C@H](Cc1c[nH]c2ccccc12)NC(=O)OC(C)(C)C [Example 64, N-t-Butyloxycarbonyl-L-tryptophyl-L-3-(2-naphthyl)alanyl-L-aspartyl-3,3-dimethylbutylamide]",5.9,7.0,
N-t-Butyloxycarbonyl-L-tryptophyl-L-3-(2-naphthyl)alanyl-L-aspartyl-1-indanylamide [Example 25],5.7,6.3,
"N-t-Butyloxycarbonyl-L-tryptophyl-L-3-(2-naphthyl)alanyl-L-aspartyl-3,4-dimethoxyphenethylamide [Example 41]",6.0,6.5,
N-t-Butyloxycarbonyl-L-tryptophyl-L-3-(2-naphthyl)alanyl-L-aspartyl-4-hydroxyphenethylamide [Example 38],5.9,7.1,
N-t-Butyloxycarbonyl-L-tryptophyl-L-3-(2-naphthyl)alanyl-L-aspartyl-L-3-cyclohexylalaninamide [Example 36],5.4,6.3,
N-t-Butyloxycarbonyl-L-tryptophyl-L-3-(2-naphthyl)alanyl-L-aspartyl-trans- 2-phenylcyclopropylamide [Example 29],6.0,5.9,
N-t-Butyloxycarbonyl-L-tryptophyl-L-3-(2-naphthyl)alanyl-L-aspartyl-α-2-phenethylester [Example 63],5.9,7.0,
